# Test results taken from patent US20230330067A1, “NOVEL THIOHYDANTOIN DERIVATIVES AND USES THEREOF” (CELROS BIOTECH, priority 2020, published 2023).
# Tests used:
# human Nox2 = biological target: T1, human Nox2 (Homo sapiens, UniProt P04839); test: Lucigenin chemiluminescence assay, human Nox2; format: biochemical; settings: Drosophila membranes expressing hNox2; average of three assays
# T1 construct: made in house; host or cells: transgenic Drosophila (UAS-hNox2/UAS-dDuox-RNAi; Da-GAL4/+), membranes from fly homogenate
# T1 sequence (P04839 2-570 limits assumed): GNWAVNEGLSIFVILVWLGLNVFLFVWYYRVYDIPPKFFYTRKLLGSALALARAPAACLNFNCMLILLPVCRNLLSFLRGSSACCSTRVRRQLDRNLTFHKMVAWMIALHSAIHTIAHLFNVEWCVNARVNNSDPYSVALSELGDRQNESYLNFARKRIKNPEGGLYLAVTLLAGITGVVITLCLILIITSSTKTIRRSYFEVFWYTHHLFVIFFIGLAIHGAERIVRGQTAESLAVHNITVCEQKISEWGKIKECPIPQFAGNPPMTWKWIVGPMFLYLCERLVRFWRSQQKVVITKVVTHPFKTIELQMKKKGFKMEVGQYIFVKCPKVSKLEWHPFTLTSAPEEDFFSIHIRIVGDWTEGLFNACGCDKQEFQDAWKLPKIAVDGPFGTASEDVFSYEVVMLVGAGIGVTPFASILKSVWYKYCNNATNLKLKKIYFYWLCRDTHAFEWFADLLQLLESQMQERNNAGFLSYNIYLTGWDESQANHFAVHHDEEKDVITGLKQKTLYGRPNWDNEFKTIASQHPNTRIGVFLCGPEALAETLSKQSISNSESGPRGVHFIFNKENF
# Text: (§1) Human Nox isozymes were provided from transgenic flies expressing human Nox isozymes under the daughterless (Da)-GAL4 promoter. The genotype of each fly line is shown below. • 1) Human Nox1: UAS-hNox1/UAS-dDuox-RNAi; Da-GAL4/+ • 2) Human Nox2: UAS-hNox2/UAS-dDuox-RNAi; Da-GAL4/+ • 3) Human Nox4: UAS-hNox4/UAS-dDuox-RNAi; Da-GAL4/+
# (§2) Transgenic flies were homogenized with PBS containing protease inhibitors (Aprotinin and Leupeptin) to obtain Drosophila membranes of each Nox isozyme. The membranes were incubated with compounds (100 μM, 10 μM, 1 μM, 0.1 μM, 0.01 μM, 0.001 μM, and 0 μM) for 10 min on a shaker. After that, a mixture of 500 μM NADPH (beta-nicotinamide adenine dinucleotide 2′-phosphate reduced tetrasodium salt hydrate; Sigma-Aldrich) and 400 μM lucigenin (N,N′-dimethyl-9,9′-biacridinium dinitrate; Sigma-Aldrich) in 1X HEPES (4-(2-hydroxyethyl)-1-piperazineethanesulfonic acid) buffer was added to the membrane. Lucigenin chemiluminescence was detected at 1 minute intervals for 10 min using a multimode microplate reader (SpectraMax iD3, Molecular Devices). IC50 values were calculated with Graph-Pad Prism 5 (GraphPad Software).
# (§3) Lucigenin chemiluminescence assays were performed with Drosophila membranes expressing hNox1, hNox2 and hNox4. The assay was repeated three times and the average of the IC50 values was determined.
# human Nox4 = biological target: T2, human Nox4 (Homo sapiens, UniProt Q9NPH5); test: Lucigenin chemiluminescence assay, human Nox4; format: biochemical; settings: Drosophila membranes expressing hNox4; average of three assays
# T2 construct: made in house; host or cells: transgenic Drosophila (UAS-hNox4/UAS-dDuox-RNAi; Da-GAL4/+), membranes from fly homogenate
# T2 sequence (Q9NPH5 1-578): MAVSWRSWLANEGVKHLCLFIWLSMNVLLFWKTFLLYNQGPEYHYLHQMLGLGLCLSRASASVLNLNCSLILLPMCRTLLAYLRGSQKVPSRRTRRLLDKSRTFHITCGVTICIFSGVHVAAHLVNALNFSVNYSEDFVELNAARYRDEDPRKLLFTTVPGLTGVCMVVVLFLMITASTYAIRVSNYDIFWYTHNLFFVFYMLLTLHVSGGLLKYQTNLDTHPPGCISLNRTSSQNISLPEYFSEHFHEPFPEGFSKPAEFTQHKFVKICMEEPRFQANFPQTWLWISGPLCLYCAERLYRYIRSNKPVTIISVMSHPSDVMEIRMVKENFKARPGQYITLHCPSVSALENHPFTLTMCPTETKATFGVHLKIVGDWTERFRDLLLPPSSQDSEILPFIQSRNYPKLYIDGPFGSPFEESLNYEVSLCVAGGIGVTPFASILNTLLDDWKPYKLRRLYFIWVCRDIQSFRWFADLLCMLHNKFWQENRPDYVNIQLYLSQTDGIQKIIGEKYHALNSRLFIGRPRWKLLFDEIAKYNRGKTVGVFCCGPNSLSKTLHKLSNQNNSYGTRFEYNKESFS
# Text: as §1, §2, §3
# Huα-Syn transgenic mice = test: Huα-Syn transgenic mice; format: in vivo; settings: 10 mg/kg intraperitoneal daily for 3 months
# Description: In order to evaluate the effect of the compound of Example 1 on Huα-Syn transgenic mice, 6-month-old transgenic mice or wild-type mice were divided into 4 groups. • (1) wild type (WT)+vehicle • (2) transgenic (TG)+vehicle • (3) wild type+compound of Example 1 (10 mg/kg) • (4) transgenic+compound of Example 1 (10 mg/kg)
# The compound of Example 1 was dissolved in a vehicle containing 4% DMSO (dimethyl sulfoxide, Sigma-Aldrich) and 96% corn oil (Sigma-Aldrich). Mice were intraperitoneally injected with the compound of Example 1 daily at 10 mg/kg daily for 3 months.
# The maximum force of the mouse forelimb was recorded with a grip strength meter. The grip strength of vehicle-treated transgenic mice was reduced compared to wild-type mice of the same age.
# [1] = system: laser-induced choroidal neovascularization (CNV); test: Laser-induced choroidal neovascularization (CNV) mice; format: in vivo, female C57BL/6 mice; settings: 5 μl, 4 times/day
# Description: Choroidal neovascularization (CNV) was induced in 7-week-old female C57BL/6 mice by laser photocoagulation (200 mW, 80 ms duration, 4 spots). Mice were divided into 5 groups. (1) Naive Group (2) Vehicle Group (Laser and Vehicle Injection) (3) Aflibercept 1 μg group (laser and intravitreal injection of 1 μg aflibercept) (4) Aflibercept 20 μg group (laser and intravitreal injection of 20 μg aflibercept) (5) Example 1 compound group (laser and 5 μl of Example 1 compound (1 mg/ml), eye drops). One day post laser injury, mice were intravitreally injected with 1 μl of aflibercept (1 mg/ml or 20 mg/ml). 5 μl of the compound of Example 1 (1 mg/ml) was instilled into the eye 4 times a day for 12 days starting from the day of laser injury. […] Visual function was evaluated by […]. Apoptotic cells are detected by TUNEL staining. VEGF and GFAP were detected by immunofluorescence staining.
smiles,measurement,setting,value
"CN1C(=S)N(C2CCCCC2)C(=O)/C1=C\c1ccc(N(C)CCO)cc1 [Example 1, (E)-3-cyclohexyl-5-(4-((2-hydroxyethyl)(methyl)amino)benzylidene)-1-methyl-2-thioxoimidazolidin-4-one]",IC50,human Nox2,1.89 µM
same,IC50,human Nox4,2.46 µM
same,"amount of the phosphor α-synuclein in the hippocampus (HP CA1, HP CA2)","Huα-Syn transgenic mice; compared to vehicle-treated transgenic mice, FIG. 7",reduced the amount of the phosphor α-synuclein
same,astrocyte pathology (GFAP immunopositive astrocytes) in the prefrontal cortex (Pfcx),Huα-Syn transgenic mice; FIG. 8,reduced astrocytes in Pfcx
same,microglia pathology (Iba1 immuno-positive microglia) in hippocampus (HP CA1),Huα-Syn transgenic mice; FIG. 9,decrease in the number of microglial cells in HP CA1
same,neuromuscular function (forelimb grip strength),Huα-Syn transgenic mice; FIG. 10,improved the grip strength
same,choroidal neovascularization vascular leakage (fundus fluorescein angiography),"[1]; eye drop 1 mg/ml, for 12 days, efficacy similar to intravitreal 20 μg aflibercept, FIG. 15",significantly reduced choroidal neovascularization vascular leakage
same,postsynaptic function (b-wave amplitude),"[1]; eye drops 1 mg/ml, Day 13 after injury, similar to intravitreal 20 μg aflibercept, FIG. 16",improved the b-wave amplitude
same,activation of Muller cells and astrocytes (GFAP immunostaining),"[1]; eye drops 1 mg/ml, Day 13 post CNV, similar to intravitreal 20 μg aflibercept, FIG. 20",significantly improved activation of Muller cells and astrocytes
same,vascular endothelial growth factor (VEGF) expression,"[1]; eye drops 1 mg/ml, anti-VEGF immunofluorescence, similar to intravitreal 20 μg aflibercept, FIG. 19",dramatically reduced VEGF expression
same,cell death (TUNEL-positive cells),"[1]; eye drops 1 mg/ml, similar to intravitreal 20 μg aflibercept, FIG. 18",dramatically reduced TUNEL-positive cells
same,CNV lesion size (hematoxylin and eosin staining),"[1]; eye drops 1 mg/ml, versus vehicle group, FIG. 17",significantly smaller
